Source: patent US8753875B2, “Compositions and means for diagnosing microbial infections” (priority 2007, dated 2014)
Like-named read-outs stand apart in the source and are kept apart here.

Key:
E. faecalis [1] = tested on: E. faecalis; set-up: key: Susceptible = S; Resistant = R; conditions: cited from earlier work
S. agalactiae = tested on: S. agalactiae; set-up: key: Susceptible = S; Resistant = R; conditions: cited from earlier work
Enterobacter = tested on: Enterobacter; set-up: key: Susceptible = S; Resistant = R; conditions: cited from earlier work
Klebsiella = tested on: Klebsiella; set-up: key: Susceptible = S; Resistant = R; conditions: cited from earlier work
Morganella = tested on: Morganella; set-up: key: Susceptible = S; Resistant = R; conditions: cited from earlier work
[2] = Stability of the antimicrobial in the semi-solid media; assay type: physicochemical
Excerpt: Stability of the antimicrobial in the semi-solid media may depend on the pH-value. The pH-value should preferably not exceed certain limits as this will influence the antimicrobial effect. The stability of Ampicillin and Mecillinam has been improved by adjusting the pH-value of the semi-solid media to 6.0.

Candida sp. = tested on: Candida sp.; set-up: key: Susceptible = S; Resistant = R; conditions: cited from earlier work
S. saprophyticus [3] = tested on: S. saprophyticus; set-up: key: Susceptible = S; Resistant = R; conditions: cited from earlier work
Citrobacter = tested on: Citrobacter; set-up: key: Susceptible = S; Resistant = R; conditions: cited from earlier work
S. saprophyticus [4] = assay: Growth on Flexicult plate, susceptibility/resistance to the five antibiotics (FIG. 4, Table A); assay type: cell-based
Excerpt: (§1) The kit was developed for urine culture in the primary health care setting. It is designed preferably as a nine cm Petri dish divided into six compartments: One larger compartment for quantitative analysis and five smaller compartments for susceptibility testing. The agar in each small compartment contains one of five antimicrobials (for Denmark and Scandinavia preferably: trimethoprim, sulfamethizole, ampicillin, nitrofurantoin and mecillinam (amdinocillin)) at a concentration adjusted to the breakpoint, such that growth in these compartments indicates resistance, and no growth indicates susceptibility. The Petri dish preferably has higher sides, approximately 2.48 cm, than the usual dish, i.e. ca. 1.48 cm. This allows a larger amount, maximum 100 ml, of urine to be poured onto the dish for inoculation.
(§2) Reading the susceptibility of the bacterial growth: Each bacterium (if more than one) is read individually: The growth in each of the antibiotic fields is compared with the growth on the control agar. […] If there is no growth (or substantially less than the control agar), then the bacterium is considered to be susceptible to the antibiotic. […] When nitrofurantoin and mecillinam are used as antibiotics, a few single colonies may be seen of the same type as the bacterium on the control agar: These are not considered to be resistant mutants but “persisters,” i.e. if retested they will appear susceptible. This is commonly seen also by disc diffusion especially for mecillinam.

Klebsiella spp. = assay: as above; assay type: cell-based
Excerpt: as §1, §2

Proteus mirabilis = assay: as above; assay type: cell-based
Excerpt: as §1, §2

Candida spp. = assay: as above; assay type: cell-based
Excerpt: as §1, §2

P. vulgaris [5] = assay: as above; assay type: cell-based
Excerpt: as §1, §2

P. aureginosa = assay: as above; assay type: cell-based
Excerpt: as §1, §2

E. faecium [6] = assay: as above; assay type: cell-based
Excerpt: as §1, §2

E. coli [7] = assay: as above; assay type: cell-based
Excerpt: as §1, §2

Enterobacter spp = assay: as above; assay type: cell-based
Excerpt: as §1, §2

Citrobacter spp. = assay: as above; assay type: cell-based
Excerpt: as §1, §2

E. faecalis [8] = assay: as above; assay type: cell-based
Excerpt: as §1, §2

Morganella spp. = assay: as above; assay type: cell-based
Excerpt: as §1, §2

P. mirabilis = tested on: P. mirabilis; set-up: key: Susceptible = S; Resistant = R; conditions: cited from earlier work
P. vulgaris [9] = tested on: P. vulgaris; set-up: key: Susceptible = S; Resistant = R; conditions: cited from earlier work
E. faecium [10] = tested on: E. faecium; set-up: key: Susceptible = S; Resistant = R; conditions: cited from earlier work
E. coli [11] = tested on: E. coli; set-up: key: Susceptible = S; Resistant = R; conditions: cited from earlier work
E. coli [12] = conditions: cited from earlier work
Pseud. Aeruginosa = tested on: Pseud. Aeruginosa; set-up: key: Susceptible = S; Resistant = R; conditions: cited from earlier work
E. coli [13] = assay: Growth of E. coli in antibiotic compartments of the platform (FIG. 3); assay type: cell-based; conditions: illustrated E. coli of FIG. 3
Excerpt: The photos show growth of E. coli at different quantities of bacteria/ml urine.

E. coli [14] = conditions: 1142 E. coli outpatient urinary isolates, USA and Canada; cited from earlier work

SMILES: CC1(C)S[C@@H]2[C@H](/N=C/N3CCCCCC3)C(=O)N2[C@H]1C(=O)O [Mecillinam, 6-Amidinopenicillanic acid derivatives; amdinocillin: 46-[[(hexahydro-1H-azepin-1-yl)methylene]amino]-3,3-dimethyl-7-oxo-, (2S,5R,6R)--Thia-1-azabicyclo[3.2.0]heptane-2-carboxylic acid]
- Normal susceptibility/resistance (E. faecalis [1]): R
- Normal susceptibility/resistance (S. agalactiae): R
- Normal susceptibility/resistance (Enterobacter): S
- Normal susceptibility/resistance (Klebsiella): S
- Normal susceptibility/resistance (Morganella): R
- stability in the semi-solid media ([2]; pH-value of the semi-solid media adjusted to 6.0): improved
- Normal susceptibility/resistance (Candida sp.): R
- Normal susceptibility/resistance (S. saprophyticus [3]): S/R
- Normal susceptibility/resistance (Citrobacter): S
- Susceptibility = S or Resistance = R (S. saprophyticus [4]): S
- Susceptibility = S or Resistance = R (Klebsiella spp.): S
- Susceptibility = S or Resistance = R (Proteus mirabilis): R
- Susceptibility = S or Resistance = R (Candida spp.): R
- Susceptibility = S or Resistance = R (P. vulgaris [5]): R
- Susceptibility = S or Resistance = R (P. aureginosa): R
- Susceptibility = S or Resistance = R (E. faecium [6]): S
- Susceptibility = S or Resistance = R (E. coli [7]): S
- Susceptibility = S or Resistance = R (Enterobacter spp): R
- Susceptibility = S or Resistance = R (Citrobacter spp.): S
- Susceptibility = S or Resistance = R (E. faecalis [8]): S
- Susceptibility = S or Resistance = R (Morganella spp.): R
- Normal susceptibility/resistance (P. mirabilis): S/R
- Normal susceptibility/resistance (P. vulgaris [9]): R
- Normal susceptibility/resistance (E. faecium [10]): R
- Normal susceptibility/resistance (E. coli [11]): S
- Antimicrobial resistance of E. coli (resistance in percent) (E. coli [12]; Austria, n 126): 1.6%
- Antimicrobial resistance of E. coli (resistance in percent) (E. coli [12]; Belgium, n 137): 1.5%
- Antimicrobial resistance of E. coli (resistance in percent) (E. coli [12]; Canada, n 166): 1.2%
- Antimicrobial resistance of E. coli (resistance in percent) (E. coli [12]; Denmark, n 85): 1.2%
- Antimicrobial resistance of E. coli (resistance in percent) (E. coli [12]; Finland, n 182): 0.5%
- Antimicrobial resistance of E. coli (resistance in percent) (E. coli [12]; France, n 199): 1.5%
- Antimicrobial resistance of E. coli (resistance in percent) (E. coli [12]; Germany, n 138): 2.2%
- Antimicrobial resistance of E. coli (resistance in percent) (E. coli [12]; Greece, n 132): 0.8%
- Antimicrobial resistance of E. coli (resistance in percent) (E. coli [12]; Ireland, n 154): 0.6%
- Antimicrobial resistance of E. coli (resistance in percent) (E. coli [12]; Luxembourg, n 24): 0%
- Antimicrobial resistance of E. coli (resistance in percent) (E. coli [12]; Norway, n 168): 0%
- Antimicrobial resistance of E. coli (resistance in percent) (E. coli [12]; Portugal, n 86): 2.3%
- Antimicrobial resistance of E. coli (resistance in percent) (E. coli [12]; Spain, n 191): 1.0%
- Antimicrobial resistance of E. coli (resistance in percent) (E. coli [12]; Sweden, n 193): 1.6%
- Antimicrobial resistance of E. coli (resistance in percent) (E. coli [12]; Switzerland, n 122): 0%
- Antimicrobial resistance of E. coli (resistance in percent) (E. coli [12]; The Netherlands, n 195): 1.5%
- Antimicrobial resistance of E. coli (resistance in percent) (E. coli [12]; Total, n 2478): 1.2%
- Antimicrobial resistance of E. coli (resistance in percent) (E. coli [12]; United Kingdom, n 180): 1.7%
- Normal susceptibility/resistance (Pseud. Aeruginosa): R
- resistant or susceptible (growth in antibiotic compartment) (E. coli [13]): susceptible

SMILES: CC1(C)SC2C(NC(=O)C(N)c3ccccc3)C(=O)N2C1C(=O)O (stereo not shown) [Ampicillin, 7-(2-amino-2-phenyl-acetyl)amino-3,3-dimethyl-6-oxo-2-thia-5-azabicyclo[3.2.0]heptane-4-carboxylic acid]
- Normal susceptibility/resistance (E. faecalis [1]): S
- Normal susceptibility/resistance (S. agalactiae): S
- Normal susceptibility/resistance (Enterobacter): R
- Normal susceptibility/resistance (Klebsiella): R
- Normal susceptibility/resistance (Morganella): R
- Overall resistance in E. coli (E. coli [14]): 37.7%
- stability in the semi-solid media [2]: improved
- Normal susceptibility/resistance (Candida sp.): R
- Normal susceptibility/resistance (S. saprophyticus [3]): S
- Normal susceptibility/resistance (Citrobacter): R
- Susceptibility = S or Resistance = R (S. saprophyticus [4]): S
- Susceptibility = S or Resistance = R (Klebsiella spp.): R
- Susceptibility = S or Resistance = R (Proteus mirabilis): S
- Susceptibility = S or Resistance = R (Candida spp.): R
- Susceptibility = S or Resistance = R (P. vulgaris [5]): R/S
- Susceptibility = S or Resistance = R (P. aureginosa): R
- Susceptibility = S or Resistance = R (E. faecium [6]): S
- Susceptibility = S or Resistance = R (E. coli [7]): R
- Susceptibility = S or Resistance = R (Enterobacter spp): R
- Susceptibility = S or Resistance = R (Citrobacter spp.): R
- Susceptibility = S or Resistance = R (E. faecalis [8]): S
- Susceptibility = S or Resistance = R (Morganella spp.): R
- Normal susceptibility/resistance (P. mirabilis): S
- Normal susceptibility/resistance (P. vulgaris [9]): R
- Normal susceptibility/resistance (E. faecium [10]): S
- Normal susceptibility/resistance (E. coli [11]): S
- Antimicrobial resistance of E. coli (resistance in percent) (E. coli [12]; Austria, n 126): 17.5%
- Antimicrobial resistance of E. coli (resistance in percent) (E. coli [12]; Belgium, n 137): 30.7%
- Antimicrobial resistance of E. coli (resistance in percent) (E. coli [12]; Canada, n 166): 29.5%
- Antimicrobial resistance of E. coli (resistance in percent) (E. coli [12]; Denmark, n 85): 22.4%
- Antimicrobial resistance of E. coli (resistance in percent) (E. coli [12]; Finland, n 182): 19.8%
- Antimicrobial resistance of E. coli (resistance in percent) (E. coli [12]; France, n 199): 27.6%
- Antimicrobial resistance of E. coli (resistance in percent) (E. coli [12]; Germany, n 138): 29.0%
- Antimicrobial resistance of E. coli (resistance in percent) (E. coli [12]; Greece, n 132): 22.0%
- Antimicrobial resistance of E. coli (resistance in percent) (E. coli [12]; Ireland, n 154): 44.8%
- Antimicrobial resistance of E. coli (resistance in percent) (E. coli [12]; Luxembourg, n 24): 41.7%
- Antimicrobial resistance of E. coli (resistance in percent) (E. coli [12]; Norway, n 168): 23.8%
- Antimicrobial resistance of E. coli (resistance in percent) (E. coli [12]; Portugal, n 86): 45.3%
- Antimicrobial resistance of E. coli (resistance in percent) (E. coli [12]; Spain, n 191): 53.9%
- Antimicrobial resistance of E. coli (resistance in percent) (E. coli [12]; Sweden, n 193): 15.5%
- Antimicrobial resistance of E. coli (resistance in percent) (E. coli [12]; Switzerland, n 122): 27.0%
- Antimicrobial resistance of E. coli (resistance in percent) (E. coli [12]; The Netherlands, n 195): 28.7%
- Antimicrobial resistance of E. coli (resistance in percent) (E. coli [12]; Total, n 2478): 29.8%
- Antimicrobial resistance of E. coli (resistance in percent) (E. coli [12]; United Kingdom, n 180): 37.2%
- Normal susceptibility/resistance (Pseud. Aeruginosa): R
- resistant or susceptible (growth in antibiotic compartment) (E. coli [13]): resistant
